A word on the IC50: it is the concentration that inhibits the measured activity by half.

Structures can show the parent of a compound that is named as a salt.

One data set relates to Trypanosoma brucei rhodesiense. The data set can be described thus: Antitrypanosomal activity against Trypanosoma brucei rhodesiense. Format: functional, organism-based.
Conditions: not given
For the molecule `Cn1c2ccccc2c2c[n+](C)c3ccccc3c21.[I-]`, it took 370 nM to reach half-maximal inhibition (IC50).

Molecule `Cn1c2c3ccccc3nc-2c(-n2c3ccccc3c3nc4ccccc4cc32)c2ccccc21` had an IC50 of 96400 nM.

`Cn1c2c3ccccc3nc-2c(-c2c3nc4ccccc4c-3n(C)c3ccccc23)c2ccccc21` [BISCRYPTOLEPINE] had an IC50 of 2570 nM.

Consider `Nc1nc(N)nc(Nc2ccc([As]3SCC(CO)S3)cc2)n1` (centres undefined) [MELARSOPROL], for which the IC50 worked out at 3.8 ng/mL.

Test system in another data set: not listed separately
The data set can be described thus: Selectivity index, IC50 for rat L6 cells to IC50 for chloroquine and pyrimethamine-resistant Plasmodium falciparum K1.
Conditions: not given
Type of data set: functional.
Take `Cn1c2ccccc2c2c[n+](C)c3ccccc3c21.[I-]`: the “Ratio IC50” value was above 700.

Consider `C[n+]1cc2[nH]c3ccccc3c2c2ccccc21.[Cl-]` [ISONEOCRYPTOLEPINE HYDROCHLORIDE], for which the “Ratio IC50” value was 20.

The subject of another data set is Trypanosoma cruzi. The data set can be described thus: Antitrypanosomal activity against Trypanosoma cruzi. Format: functional, organism-based.
Conditions: not given
Turning to `Cn1c2ccccc2c2c[n+](C)c3ccccc3c21.[I-]`, the IC50 was 236 µM.

As for `Cn1c2c3ccccc3nc-2c(-n2c3ccccc3c3nc4ccccc4cc32)c2ccccc21`, the concentration for half-maximal inhibition (IC50) came to 84.4 µM.

Consider `O=C(Cn1ccnc1[N+](=O)[O-])NCc1ccccc1` [BENZNIDAZOLE], for which the IC50 was 1.5 µg/mL.

Take `Cn1c2c3ccccc3nc-2c(-c2c3nc4ccccc4c-3n(C)c3ccccc23)c2ccccc21` [BISCRYPTOLEPINE]: the IC50 turned out to be 3.48 µM.

For a further data set, the system named is Plasmodium berghei. Nature of the data set: Antiplasmodial activity against Plasmodium berghei ANKA S infected NMRI mice (Mus musculus) as reduced parasitaemia at 50 mg/kg subcutaneous dose for 4 days. Type of data set: functional. More on the design: scale not given: the % may be the effect or the level left.
Conditions: not given
Molecule `Cn1c2ccccc2c2c[n+](C)c3ccccc3c21.[I-]` registered an Activity of 38.9%.

Molecule `CCN(CC)CCCC(C)Nc1ccnc2cc(Cl)ccc12` (centres undefined) [CHLOROQUINE] came in with an Activity of 99.9%.

In turn, `C[n+]1cc2[nH]c3ccccc3c2c2ccccc21.[Cl-]` [ISONEOCRYPTOLEPINE HYDROCHLORIDE] yielded an Activity of 10.3%.

A further data set relates to L6. Nature of the data set: Cytotoxicity against rat L6 cells. Format: cell-based.
Conditions: not given
As to `Cn1c2ccccc2c2c[n+](C)c3ccccc3c21.[I-]`, the IC50 amounted to 12.7 µM.

In the case of `Cn1c2c3ccccc3nc-2c(-n2c3ccccc3c3nc4ccccc4cc32)c2ccccc21`, the IC50 stood at 165 µM.

For `Cn1c2c3ccccc3nc-2c(-c2c3nc4ccccc4c-3n(C)c3ccccc23)c2ccccc21` [BISCRYPTOLEPINE], the IC50 amounted to 13.6 µM.

`C[n+]1c2ccccc2cc2[n-]c3ccccc3c21` [CRYPTOLEPINE HYDROCHLORIDE] registered an IC50 of 1.12 µM.

Molecule `Cn1cc2c3ccccc3nc-2c2ccccc21` [ISOCRYPTOLEPINE HYDROCHLORIDE] gave an IC50 of 1.19 µM.

`C[n+]1cc2[nH]c3ccccc3c2c2ccccc21.[Cl-]` [ISONEOCRYPTOLEPINE HYDROCHLORIDE]: the midpoint of inhibition, the IC50, lay at 4.32 µM.

For `Cn1c2nc3ccccc3c-2cc2ccccc21` [NEOCRYPTOLEPINE HYDROCHLORIDE], the IC50 is 3.24 µM.

In turn, `COc1cc([C@@H]2c3cc4c(cc3[C@H](O)[C@H]3COC(=O)[C@H]23)OCO4)cc(OC)c1OC` [PODOFILOX] had an IC50 of 0.018 µg/mL.

A further data set concerns Leishmania donovani. Nature of the data set: Antileishmanial activity against Leishmania donovani.
Conditions: not given
Format: functional, organism-based.
For `Cn1c2ccccc2c2c[n+](C)c3ccccc3c21.[I-]`, the IC50 turned out to be 1.15 µM.

In turn, `Cn1c2c3ccccc3nc-2c(-n2c3ccccc3c3nc4ccccc4cc32)c2ccccc21` showed an IC50 above 65 µM.

`Cn1c2c3ccccc3nc-2c(-c2c3nc4ccccc4c-3n(C)c3ccccc23)c2ccccc21` [BISCRYPTOLEPINE] had an IC50 of 8.93 µM.

Consider `CCCCCCCCCCCCCCCCOP(=O)([O-])OCC[N+](C)(C)C` [MILTEFOSINE], for which half-maximal inhibition (IC50) required 0.56 µg/mL.

Another data set has as its system Mus musculus. Nature of the data set: Toxicity in Plasmodium berghei ANKA S infected NMRI mice (Mus musculus) assessed as death at 50 mg/kg, intraperitoneally twice a day after day 1 post-infection. Type of data set: organism-based. The conditions noted are these: in vivo, ip. More on the design: dose 50 mg/kg, route intraperitoneal.
On to `Cn1c2ccccc2c2c[n+](C)c3ccccc3c21.[I-]`, for which the Activity result is “Toxic”.

Biological target in the next data set: not listed separately
Nature of the data set: Displacement of methyl green dye from DNA.
Conditions: not given
`C[n+]1c2ccccc2cc2[n-]c3ccccc3c21` [CRYPTOLEPINE HYDROCHLORIDE] showed an IC50 of 65 µM.

`Cn1cc2c3ccccc3nc-2c2ccccc21` [ISOCRYPTOLEPINE HYDROCHLORIDE] came in with an IC50 of 119 µM.

The molecule `C[n+]1cc2[nH]c3ccccc3c2c2ccccc21.[Cl-]` [ISONEOCRYPTOLEPINE HYDROCHLORIDE] showed an IC50 of 124 µM.

The molecule `Cn1c2nc3ccccc3c-2cc2ccccc21` [NEOCRYPTOLEPINE HYDROCHLORIDE] showed an IC50 of 93 µM.

In turn, `C=C[C@H]1CN2CC[C@H]1C[C@H]2[C@H](O)c1ccnc2ccc(OC)cc12` [QUININE] returned a half-inhibitory concentration (IC50) above 360 µM.

For another data set, the system named is Plasmodium falciparum. The data set can be described thus: microbe, parasite or virus in culture. The conditions noted are these: K1, 3 h.
On to `Cn1c2ccccc2c2c[n+](C)c3ccccc3c21.[I-]`, for which half-maximal inhibition (IC50) required 17 nM.

As to `C[C@@H]1CC[C@H]2[C@@H](C)C(=O)O[C@@H]3O[C@@]4(C)CC[C@@H]1[C@]32OO4` [ARTEMISININ], half-maximal inhibition (IC50) was put at 0.042 µg/mL.

Regarding `Cn1c2c3ccccc3nc-2c(-c2c3nc4ccccc4c-3n(C)c3ccccc23)c2ccccc21` [BISCRYPTOLEPINE], the IC50 worked out at 270 nM.

These data come from ChEMBL document CHEMBL1158751, “Isoneocryptolepine, a synthetic indoloquinoline alkaloid, as an antiplasmodial lead compound” (J Nat Prod, 2005).
